Entries after “also recorded” stand apart in the source; their conditions may differ.
Experiments:
[1] = test system: P. ACNES ATCC 25746; assay: MIC's for long chain dioic acids against P. acnes (Table 4); format: cell-based, Propionibacterium acnes; conditions: for MIC: P. acnes ATCC 25746
Experimental: (§1) The Minimum Inhibitory Concentration (MIC) of each of various unsaturated dicarboxylic acid mixtures was determined in the presence and absence of 10% Intralipid (Kabi Pharmacia, Inc.) using the agar dilution technique for susceptibility of 32 strains of Propionibacterium acnes and of 32 strains of various genera of aerobic bacteria. The method was as set out below.
(§2) A 5% stock solution for each agent was prepared by adding 10 grams of the dioic acid material to 200 milliliters of double strength Tryptic Soy Broth (TSB), (Baltimore Biological Laboratories). The pH of each solution was adjusted to 7.0±0.2 with sodium hydroxide.
(§3) For each organic acid two sets of 200 ml capacity bottle/flasks were numbered 1 to 9. To each bottle was added 50 cc of double strength TSB. From the 5% stock solution, 50 cc of TSB were transferred to bottles #1 and #2. Serial transfers of 50 cc are made from bottle #2 through to bottle #8. Bottle #9 of each set contained only 50 cc of double strength TSB, without any dicarboxylic acid. To all 18 bottles were added 2 grams of granulated agar (BBL).
(§4) All bottles were autoclaved at 121° C., 15 psi for 15 minutes and then held at 50° C. in a water bath.
(§5) To one set of bottles #1-9 were added 50 cc of hot, sterile water. The bottles were swirled to mix the contents and 25 cc was poured into each of four petri dishes and allowed to solidify. To the second set of bottles were added 50 cc of Intralipid (pre-warmed to 50° C). The contents were then mixed and poured as above. Standard inocula of the test organisms were prepared by matching the bacterial suspension in 0.85% PSS (physiological saline solution) to a 0.5 McFarland Standard and diluting ten-fold to yield 10^7 CFU (colony forming units). The inocula were loaded into 32 wells of a steers replicator. The multi-prong inoculator delivers 0.001 to 0.002 cc resulting in a final inoculum of 10^4 CFU per spot.
Plates were inoculated from the lowest to highest concentration (to reduce the effects of "carry-over" of the inoculum), and allowed to dry. The plates were then inverted and incubated at 35° C. for 24 hours. […]
(§6) The agent-free control plates (#9) were examined at the end of the incubation for viability and signs of contamination. End-point MIC values were determined by observing the plate of lowest concentration of agent that inhibited visible micro-organism growth.
A similar experiment was performed, using the same method, to compare the degree of inhibitory activity (for P. acnes) of azelaic acid, the C18:1 dioic acid (obtained from a substrate comprising oleic acid), a mixture of C18.1 fatty (mono-carboxylic) acid, the corresponding C18:1 and C18:2 dioic acids (obtained from a substrate comprising Linoleic acid), and the C16:1 dioic acid (obtained from a substrate comprising palmitoleic acid). The MICs for azelaic acid and the C18.1 dioic acid were essentially as before, confirming the previous results. The corresponding fatty acid had very little activity.
In experiment 4, the degree of inhibition of the azelaic acid control, and therefore of the test samples also, was slightly less than that observed in previous experiments.

[2] = test system: Propionibacterium acnes; assay: MIC, agar dilution technique (Table 3); format: cell-based
Experimental: as §1, §2, §3, §4, §5
(§7) Plates were inoculated from the lowest to highest concentration (to reduce the effects of "carry-over" of the inoculum), and allowed to dry. The plates were then inverted and incubated at 35° C. for 24 hours. Plates inoculated with Propionibacterium acnes strains were incubated under anaerobic conditions for seven days at 35° C.
as §6

[3] = test system: Pseudomonas aeruginosa; assay: MIC, agar dilution technique (Table 3); format: cell-based; conditions: Pseudomonas aeruginosa ATCC 27853
Experimental: as §1, §2, §3, §4, §5, §7, §6

[4] = test system: Micrococcus luteus; assay: MIC, agar dilution technique (Table 3); format: cell-based
Experimental: as §1, §2, §3, §4, §5, §7, §6

[5] = test system: Staphylococcus aureus; assay: MIC, agar dilution technique (Table 3); format: cell-based
Experimental: as §1, §2, §3, §4, §5, §7, §6

[6] = test system: Corynebacterium minutissium; assay: MIC, agar dilution technique (Table 3); format: cell-based
Experimental: as §1, §2, §3, §4, §5, §7, §6

[7] = test system: Micrococcus sedentarius; assay: MIC, agar dilution technique (Table 3); format: cell-based; conditions: Micrococcus sedentarius ATCC 27574
Experimental: as §1, §2, §3, §4, §5, §7, §6

[8] = test system: Staphylococcus epidermidis; assay: MIC, agar dilution technique (Table 3); format: cell-based
Experimental: as §1, §2, §3, §4, §5, §7, §6

[9] = test system: Escherichia coli; assay: MIC, agar dilution technique (Table 3); format: cell-based; conditions: Escherichia coli ATCC 25922
Experimental: as §1, §2, §3, §4, §5, §7, §6

[10] = test system: Brevibacterium epidermidis; assay: MIC, agar dilution technique (Table 3); format: cell-based
Experimental: as §1, §2, §3, §4, §5, §7, §6

[11] = test system: thioredoxin reductase; conditions: cited from earlier work
[12] = test system: Candida albicans; assay: MIC, agar dilution technique (Table 3); format: cell-based; conditions: Candida albicans ATCC 18804
[13] = test system: 32 strains of Propionibacterium acnes and 32 strains of various genera of aerobic bacteria; assay: Antimicrobial activity, summary over the range of micro-organisms; format: cell-based
Experimental: as §1, §2
as §3, with “(BBL). […]” for “(BBL).”
The agent-free control plates (#9) were examined at the end of the incubation for viability and signs of contamination. End-point MIC values were determined by observing the plate of lowest concentration of agent that inhibited visible micro-organism growth. […]

[14] = Expt. 4, increased incubation period of 18 days
[15] = Propionibacterium acnes ATCC 6919
[16] = Propionibacterium acnes ATCC 29399
[17] = Staphylococcus aureus ATCC 25923
[18] = Staphylococcus aureus ATCC 29213
[19] = Staphylococcus aureus ATCC 35556
[20] = Corynebacterium minutissium ATCC 23347
[21] = Corynebacterium minutissium ATCC 23348
[22] = Corynebacterium minutissium ATCC 23349
[23] = Staphylococcus epidermidis ATCC 14490
[24] = Staphylococcus epidermidis ATCC 31432
[25] = Staphylococcus epidermidis ATCC 35894
[26] = Brevibacterium epidermidis ATCC 35514
[27] = Brevibacterium epidermidis NCDO 2285

Compound: O=C(O)CCCCCC=CCCCCCCCC(=O)O [C16:1 dioic acid ex Palmitoleic acid]
- MIC [1, 14]: 0.16%

Compound: CCCCCCCC/C=C\CCCCCCCC(=O)O [C18:1 Fatty acid, oleic acid, reference compound]
- inhibitory activity compared with azelaic acid ([1]; P. acnes): less active than azelaic acid
- MIC ([1]; Expt. 3, incubation 7 days): > 5%

Compound: O=C(O)CCCCCCCC(=O)O [Azelaic acid, azelaic acid, reference compound]
- MIC ([1]; Expt. 1, incubation 7 days): 5%
- MIC ([1]; Expt. 2, incubation 7 days): 5%
- MIC ([1]; Expt. 3, incubation 7 days): 5%
- MIC [1, 14]: > 5%
- MIC [2, 15]: 1.25%
- MIC [2, 16]: 1.25%
- MIC [3]: > 2.5%
- MIC ([4]; Micrococcus luteus ATCC 9341): > 2.5%
- MIC ([4]; Micrococcus luteus ATCC 15957): > 2.5%
- MIC ([4]; Micrococcus luteus ATCC 27141): 2.5%
- MIC [5, 17]: 2.5%
- MIC [5, 18]: 2.5%
- MIC [5, 19]: 2.5%
- MIC [6, 20]: > 2.5%
- MIC [6, 21]: > 2.5%
- MIC [6, 22]: > 2.5%
- MIC [7]: 2.5%
- MIC [8, 23]: > 2.5%
- MIC [8, 24]: > 2.5%
- MIC [8, 25]: > 2.5%
- MIC [9]: 2.5%
- MIC [10, 26]: > 2.5%
- MIC [10, 27]: > 2.5%
- inhibition of thioredoxin reductase [11]: inhibits thioredoxin reductase
- MIC [12]: > 2.5%

Compound: O=C(O)CCCCCCC/C=C\CCCCCCCC(=O)O [C18:1 dioic acid ex Oleic acid]
- MIC ([1]; Expt. 1, incubation 7 days): 0.04%
- MIC ([1]; Expt. 2, incubation 7 days): 0.04%
- MIC ([1]; Expt. 3, incubation 7 days): 0.04%
- MIC [1, 14]: 0.08%
- activity relative to azelaic acid ([1]; P. acnes, fold of the activity of azelaic acid): ~100 ×
- effect of the presence or absence of "Intralipid" on MIC ([13]; 10% Intralipid, listed as C18:1 mono-unsaturated compound): increased the MIC for taph. aureus; also recorded: decreased the MIC for P. acnes and M. luteus
- anti-microbial activity compared with azelaic acid ([13]; Table 3 micro-organisms): many times greater than that for azelaic acid
- MIC [2, 15]: 0.04%
- MIC ([2]; Propionibacterium acnes ATCC 6919, + "Intralipid"): 0.02%
- MIC [2, 16]: 0.04%
- MIC ([2]; Propionibacterium acnes ATCC 29399, + "Intralipid"): 0.02%
- MIC [3]: > 2.5%
- MIC ([3]; + "Intralipid"): > 2.5%
- MIC ([4]; Micrococcus luteus ATCC 9341): 0.15%
- MIC ([4]; Micrococcus luteus ATCC 9341, + "Intralipid"): 0.07%
- MIC ([4]; Micrococcus luteus ATCC 15957): 0.15%
- MIC ([4]; Micrococcus luteus ATCC 15957, + "Intralipid"): 0.07%
- MIC ([4]; Micrococcus luteus ATCC 27141): 0.15%
- MIC ([4]; Micrococcus luteus ATCC 27141, + "Intralipid"): 0.07%
- MIC [5, 17]: 0.07%
- MIC ([5]; Staphylococcus aureus ATCC 25923, + "Intralipid"): 0.15%
- MIC [5, 18]: 0.15%
- MIC ([5]; Staphylococcus aureus ATCC 29213, + "Intralipid"): 0.31%
- MIC [5, 19]: 0.07%
- MIC ([5]; Staphylococcus aureus ATCC 35556, + "Intralipid"): 0.31%
- MIC [6, 20]: 0.15%
- MIC ([6]; Corynebacterium minutissium ATCC 23347, + "Intralipid"): 0.15%
- MIC [6, 21]: 0.15%
- MIC ([6]; Corynebacterium minutissium ATCC 23348, + "Intralipid"): 0.15%
- MIC [6, 22]: 0.15%
- MIC ([6]; Corynebacterium minutissium ATCC 23349, + "Intralipid"): 0.15%
- MIC [7]: 0.15%
- MIC ([7]; + "Intralipid"): 0.07%
- MIC [8, 23]: 0.31%
- MIC ([8]; Staphylococcus epidermidis ATCC 14490, + "Intralipid"): 0.31%
- MIC [8, 24]: 0.31%
- MIC ([8]; Staphylococcus epidermidis ATCC 31432, + "Intralipid"): 0.31%
- MIC [8, 25]: 0.31%
- MIC ([8]; Staphylococcus epidermidis ATCC 35894, + "Intralipid"): 0.31%
- MIC [9]: > 2.5%
- MIC ([9]; + "Intralipid"): > 2.5%
- MIC [10, 26]: 0.15%
- MIC ([10]; Brevibacterium epidermidis ATCC 35514, + "Intralipid"): 0.15%
- MIC [10, 27]: 0.15%
- MIC ([10]; Brevibacterium epidermidis NCDO 2285, + "Intralipid"): 0.15%
- MIC [12]: > 2.5%
- MIC ([12]; + "Intralipid"): > 2.5%
